Experimental data taken from PubChem BioAssay AID1339 (NMMLSC, 2008).
pEC50: −log10 of the molar value.

Target: Ras-related C3 botulinum toxin substrate 1 (Homo sapiens) (UniProt P63000)
Assay: activated Rac1 mutant nucleotide-binding inhibitors – biochemical, multiplex, GST-Rac1 beads, Bodipy-FL-GTP, flow cytometry, dose response (AID 1339)

| SMILES | pEC50 |
| --- | --- |
| CSc1ccc(/C=N/NC(=O)c2cc(O)cc(O)c2)cc1 | 4.26 |
| N#Cc1c(-c2ccccc2)nc(SCC(=O)Nc2ccccc2)[nH]c1=O | 4.53 |
| COc1cccc(CNCc2sc(C(=O)O)cc2C)c1 | 4.59 |
| Cc1cc(C)cc(OCCSc2nc3ccccc3n2CC(=O)O)c1 | 4.63 |
| CCOC(=O)c1c(NC(=O)/C=C/c2ccc3c(c2)OCO3)sc(C)c1CC | 4.52 |
| O=C(CSc1ncnc2scc(-c3ccccc3)c12)N1CCN(Cc2ccc3c(c2)OCO3)CC1 | 4.21 |
| Cc1ccc(C(C)C)c(OCCn2cc(C(=O)O)c3ccccc32)c1 | 6.20 |
| Cc1cc(C(=O)Cn2nc(C(=O)O)c3ccccc3c2=O)c(C)n1-c1ccc(OC(F)F)cc1 | 5.45 |
| CC(=O)c1ccc(C#CC(=O)c2ccc([N+](=O)[O-])cc2)cc1 | 5.91 |
| COc1ccc(OC)c(-c2c3cc(O)c(=O)cc-3oc3cc(O)c(O)cc23)c1 | 6.55 |
| CC(=O)Nc1cccc(C#CC(=O)c2ccc([N+](=O)[O-])cc2)c1 | 4.85 |
| CNC(=S)N=Nc1c(O)[nH]c2ccccc12 | 4.04 |
| CC(=O)c1c(C)[nH]c(C(=O)N2CCc3ccccc3C2)c1C | 5.60 |
| COc1ccccc1NCc1sc(C(=O)O)cc1C | 5.37 |
| CCOc1ccc(/C=C2\SC(N3CCc4ccccc4C3)=NC2=O)cc1 | 4.97 |
| O=C(C#Cc1ccccc1)c1cccc([N+](=O)[O-])c1 | 4.63 |
| Cc1ccc(-n2c(-c3cnccn3)n[nH]c2=S)c(Br)c1 | 4.55 |
| COc1ccccc1OCc1cccc(C(=O)O)c1 | 5.02 |
| O=C(c1nnsc1S(=O)(=O)c1ccc(Cl)cc1)N1CCOCC1 | 4.86 |
| O=C(C#Cc1ccc(F)cc1)c1ccc([N+](=O)[O-])cc1 | 5.41 |
| O=C(O)c1cn(CCOc2ccccc2)c2ccccc12 | 6.07 |
| O=C(O)/C=C/c1cn(Cc2ccccc2)nc1-c1cccs1 | 5.71 |
| CCn1nc(C(=O)OCC(=O)c2cc(C)n(Cc3cccs3)c2C)c2ccccc2c1=O | 4.34 |
| Cc1cc(C)c(C)c(C(=O)c2ccccc2C(=O)O)c1C | 5.82 |
| O=C(C#Cc1ccccc1)c1ccc([N+](=O)[O-])cc1 | 5.19 |
| Cc1cc(C(=O)Oc2ccccc2C(=O)O)c(C)o1 | 6.18 |
| O=C(Nc1nnc(-c2ccc3c(c2)OCCO3)o1)c1ccc(Cc2ccccc2)cc1 | 4.99 |
| COc1ccc(C(=O)Nc2cc(Cl)ccc2C(=O)O)cc1 | 4.66 |

| SMILES | pEC50 |
| --- | --- |
| Cc1ccc(C)c(OCCn2cc(C(=O)O)c3ccccc32)c1 | 6.65 |
| CCN(CC)c1ccc2cc(-c3nc(-c4ccc(OC)cc4)cs3)c(=O)oc2c1 | 6.26 |
| Cc1ccc(SC(CC(=O)c2ccc(C(C)(C)C)cc2)C(=O)O)cc1 (stereo not given) | 4.91 |
| O=C(O)c1ccccc1Sc1ncnc2sc3c(c12)CCC3 | 5.97 |
| COc1cccc(NC(=O)COC(=O)/C=C/c2ccc(Cl)cc2Cl)c1 | 4.88 |
| Cc1ccc(Nc2cc(C(=O)O)c3ccccc3n2)cc1C | 5.26 |
| COc1ccccc1OCCn1cc(C(=O)O)c2ccc(Cl)cc21 | 5.76 |
| CC(C)(C)C#CC(=O)c1ccc([N+](=O)[O-])cc1 | 4.19 |
| CCOC(=O)c1cc([N+](=O)[O-])c([N+](=O)[O-])cc1NC(C)=O | 4.50 |
| O=[N+]([O-])c1cc2oc3c(c2c(C=NCc2ccccc2)c1O)CCCC3 | 5.24 |
| COC(=O)c1cccnc1SCCc1ccccc1 | 4.44 |
| O=C(O)c1ccccc1NCc1c(Cl)cccc1Cl | 4.47 |
| COc1ccc(Cl)cc1NCc1sc(C(=O)O)cc1C | 5.66 |
| CCc1ccc(NS(=O)(=O)c2ccc3[nH]cc(C(=O)N4CCc5ccccc54)c(=O)c3c2)cc1 | 4.69 |
| CCCOc1ccc(OCCSc2nc3ccccc3n2CC(=O)O)cc1 | 4.45 |
| Cc1ccccc1C(=O)Nc1ccc2c(C#N)c3nc4ccccc4nc3n2c1 | 6.05 |
| Cc1ccccc1OCCn1c(C)c(C(=O)O)c2ccccc21 | 6.20 |
| Cc1cc(OCCSc2nc3ccccc3n2CC(=O)O)ccc1Cl | 4.60 |
| Cc1ccc(C(C)C)c(OCCSc2nc3ccccc3n2CC(=O)O)c1 | 4.47 |
| COc1ccc(C(=O)c2c(O)cc(-c3ccc(OC)cc3)oc2=O)cc1 | 5.45 |
| Cc1cc(NC(=O)CSc2nc(-c3ccccc3)c(C#N)c(=O)[nH]2)no1 | 4.89 |
| COc1cc(C(=O)OCC(=O)Nc2ccc3c(c2)OC(F)(F)O3)ccc1OCc1c(C)noc1C | 4.85 |
| OC(CNCCc1ccc(Cl)cc1)COc1ccc2ccccc2c1 (stereo not given) | 4.41 |
| CS(=O)(=O)c1ccc(C(=O)OCC(=O)NC(=O)C2CCCCC2)cc1[N+](=O)[O-] | 4.36 |
| O=C(O)c1cc(Sc2ccc(F)cc2)nc2ccccc12 | 4.33 |
| Cc1nn(Cc2ccccc2)c(Cl)c1C(=O)O | 4.66 |
| O=C(O)c1cc(Sc2ccc(Cl)cc2)nc2ccccc12 | 4.16 |
